Data reported in patent US20050054587A1, “Novel therapeutic indication of azithromycin for treatment of non-infective inflamatory diseases” (priority 2001, published 2005).

Experiments:
Type in all cases: in vivo, human
[1] = tested on: azurophilic granules of neutrophils; assay: Release of glycosidases from azurophilic granules (NAGA and β-glucuronidase); settings: healthy volunteers, 3×500 mg; within 24 hours after the last dose
Protocol: (§1) A trial on healthy volunteers was conducted and the influence of azithromycin given in a dosage of 3×500 mg on selected inflammation-relevant parameters was followed up.
(§2) Each subject received two standard 250 mg capsules of azithromycin (Sumamed®, PLIVA Zagreb) on three consecutive days. Immediately before the treatment and 2 h and 30 min, 24 h and 28 days after the third and last dose of azithromycin blood was collected from the cubital vein into EDTA-containing tubes. Aliquots were taken for cell counting, smear preparation, polymorphonuclear cell and serum isolation.
Glycosidases are enzymes that catalyse hydrolysis of glycosidic bonds of oligosacharides and other glycosides. They are specific to the glycosidic part of substrate molecule. N-acetyl-β-D-glucosaminidase (NAGA) and β-glucuronidase are such enzymes. They are lysosomal enzymes, both located in azurophilic (primary; peroxidase-positive) granules of neutrophils. Since degranulation of neutrophils is present during inflammation, many authors choose these enzymes as markers of degranulation and for estimation of neutrophil reactivity. The catalytic concentration of both enzymes in serum and in neutrophil lysates was determined using the fluorimetric method described by O'Brien et al. (New Engl. J. Med. (1970) 283: 15-20) for NAGA and Glaser & Sly (J. Lab. Clin. Med. (1973) 82: 969) for β-glucuronidase. […]

[2] = tested on: myeloperoxidase (MPO); assay: Myeloperoxidase density on digital image of blood smear, healthy volunteer trial; settings: healthy volunteers, azithromycin 3×500 mg, baseline 105 ± 13
Protocol: as §1, §2
(§3) The activity of MPO was assessed from the intensity of staining of neutrophils in blood smears and in cell lysates by ELISA. After fixation in ethanol-formaldehyde, smears were incubated in a substrate solution containing hydrogen peroxide and benzidine (SIGMA). After incubation, smears were counterstained with Giemsa solution. MPO value positivity_of 100 granulocytes was evaluated and scored from 0 to 4+ on the basis of the intensity of the precipitated dye in cytoplasm. Therefore, the value of the score could be from 0 to 400. Normal values of score range (290-390) were taken from this study before azithromycin administration. MPO activity was also evaluated on the digital image of smear taken with a digital camera under the high magnification (×1000) of light microscope. MPO activities in blood smear neutrophils decreased from 2 h and 30 min to 24 h after the last azithromycin dose and returned to baseline after 28 days (Table 1). The change in neutrophil enzyme protein followed the same pattern as that in intracellular enzyme activity, decreasing from 2 h and 30 min to 24 h after the last dose of azithromycin and returning to baseline after 28 days. Both methodological approaches of MPO determination confirmed each other. Degranulation presented with lower MPO neutrophil density determined_with cytochemistry was associated with lower MPO ELISA concentrations in neutrophil lysates.

[3] = tested on: myeloperoxidase (MPO); assay: MPO enzyme protein by ELISA in neutrophil lysates; settings: healthy volunteers, azithromycin 3×500 mg, baseline 54.22 ± 12.61
Protocol: as §1, §2
as §3, with “Both methodological approaches of MPO determination confirmed each other.” left out
Proteins in PMN samples were determined according to the method of Bradford (Anal. Biochem. (1976) 72: 248-254) using bovine serum albumin as a standard.

[4] = tested on: myeloperoxidase (MPO); assay: Myeloperoxidase cytochemical score in blood smear neutrophils, healthy volunteer trial; settings: healthy volunteers, azithromycin 3×500 mg, baseline 337 ± 29, score 0-400
Protocol: as §1, §2, §3

[5] = tested on: IL-8; assay: Serum IL-8 concentration, ELISA; settings: healthy volunteers, azithromycin 3×500 mg, baseline 29.47 ± 15.44
Protocol: as §1, §2
(§4) Cytokine and chemokine concentrations were determined using ELISA kits. […] Rapid and pronounced decreases in the plasma concentrations of the neutrophil-stimulating chemokine, IL-8, and GR0-α were observed 2 h and 30 min and 24 h after the last dose of azithromycin (Table 1. The concentration of IL-8 returned essentially to baseline after 28 days, while that of GRO-[…] was decreased at this time.

[6] = tested on: IL-6; assay: Serum IL-6 concentration, ELISA; settings: healthy volunteers, azithromycin 3×500 mg, baseline 3.4 ± 1.05
Protocol: as §1, §2, §4

[7] = tested on: IL-1; assay: Serum IL-1 concentration, ELISA; settings: healthy volunteers, azithromycin 3×500 mg, baseline 0.291 ± 0.11
Protocol: as §1, §2, §4

[8] = tested on: stimulated neutrophils; assay: fMLP-stimulated neutrophil oxidative burst, luminol chemiluminescence; settings: healthy volunteers, azithromycin 3×500 mg, baseline 29335 ± 1957
Protocol: as §1, §2
The generation of reactive oxygen species by activated cells is frequently determined by the measurement of chemiluminescence (CL). The radical species formed react with a photon-producing chemical (e.g. Luminol) and the resulting light emission is measured with a photocell. Chemiluminescence is detectable as a result of the stimulation (e.g. fMLP) of leucocytes and is a measure of their oxidative cytotoxic activity (Allen et al., Biochem. Biophys. Res. Commun. (1972), 47: 679).
The results of the study presented in Table 1 show, that azithromycin inhibits chemiluminescence generated from stimulated neutrophils isolated from the blood of humans treated with azithromycin.

## CC[C@H]1OC(=O)[C@H](C)[C@@H](O[C@H]2C[C@@](C)(OC)[C@@H](O)[C@H](C)O2)[C@H](C)[C@@H](O[C@@H]2O[C@H](C)C[C@H](N(C)C)[C@H]2O)[C@](C)(O)C[C@@H](C)CN(C)[C@H](C)[C@@H](O)[C@]1(C)O [azithromycin, 9-deoxo-9-dihydro-9a-methyl-9a-aza-9a-homoerythromycin A]
[1]
  release of enzymes from azurophilic granules: 40-50%
[2]; 2 h and 30 min after last dose
  myeloperoxidase (density): 130 ± 16
[2]; 24 hours after last dose
  myeloperoxidase (density): 131 ± 17
[2]; 28 days after last dose
  myeloperoxidase (density): 115 ± 19
[3]; 2 h and 30 min after last dose
  myeloperoxidase (PMN): 70.85 ± 19.91 μg/mg protein
[3]; 24 hours after last dose
  myeloperoxidase (PMN): 26.74 ± 2.51 μg/mg protein
[3]; 28 days after last dose
  myeloperoxidase (PMN): 70.01 ± 17.62 μg/mg protein
[4]; 2 h and 30 min after last dose
  myeloperoxidase (score): 326 ± 26
[4]; 24 hours after last dose
  myeloperoxidase (score): 315 ± 22
[4]; 28 days after last dose
  myeloperoxidase (score): 347 ± 18
[5]; 2 h and 30 min after last dose
  IL-8 (serum): 10.61 ± 3.81 pg/mL
[5]; 24 hours after last dose
  IL-8 (serum): 14.60 ± 10.75 pg/mL
[5]; 28 days after last dose
  IL-8 (serum): 23.03 ± 19.72 pg/mL
[6]; 2 h and 30 min after last dose
  IL-6 (serum): 2.7 ± 1.49 pg/mL
[6]; 24 hours after last dose
  IL-6 (serum): 2.5 ± 1.48 pg/mL
[6]; 28 days after last dose
  IL-6 (serum): 1.15 ± 0.61 pg/mL
[7]; 2 h and 30 min after last dose
  IL-1 (serum): 0.533 ± 0.15 pg/mL
[7]; 24 hours after last dose
  IL-1 (serum): 1.07 ± 0.19 pg/mL
[7]; 28 days after last dose
  IL-1 (serum): 0.29 ± 0.20 pg/mL
[8]; 2 h and 30 min after last dose
  OXIDATIVE BURST (PMN) fMLP-luminol: 14774 ± 1175 A.U.
[8]; 24 hours after last dose
  OXIDATIVE BURST (PMN) fMLP-luminol: 5053 ± 3804 A.U.
[8]; 28 days after last dose
  OXIDATIVE BURST (PMN) fMLP-luminol: 9879 ± 13880 A.U.
